Results on 1 compound are retold here after paper PMC8718112, “Functional independence of endogenous μ- and δ-opioid receptors co-expressed in cholinergic interneurons” (eLife, 2021).

The experiment addresses T1, δ-opioid receptor (DOR) (Mus musculus, UniProt P32300).
T1 construct: gene Oprd1; endogenous receptor on cholinergic interneurons in mouse brain slices
As to the kind of experiment: cell-attached recording of firing inhibition reversed by SDM25N; internalization of labeled receptors. It counts as cell-based.

As a reminder, the inhibition is the relative decrease from the control value, in per cent. A low value points to little suppression.

T1 sequence (P32300 whole entry): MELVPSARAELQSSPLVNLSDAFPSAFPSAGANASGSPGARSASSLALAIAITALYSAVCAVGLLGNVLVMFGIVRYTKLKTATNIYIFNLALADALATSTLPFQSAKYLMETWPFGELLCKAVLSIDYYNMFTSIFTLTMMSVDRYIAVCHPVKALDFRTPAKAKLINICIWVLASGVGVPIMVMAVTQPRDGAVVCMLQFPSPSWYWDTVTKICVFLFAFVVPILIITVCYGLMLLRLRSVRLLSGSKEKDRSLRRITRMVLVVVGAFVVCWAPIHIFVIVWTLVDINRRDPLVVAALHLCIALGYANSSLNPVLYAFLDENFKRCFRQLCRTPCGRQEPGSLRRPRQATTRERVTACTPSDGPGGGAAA

Compound `CC(C)[C@H](NC(=O)[C@H](CCC(=O)O)NC(=O)[C@H](Cc1ccccc1)NC(=O)[C@@H](C)NC(=O)[C@@H](N)Cc1ccc(O)cc1)C(=O)N[C@H](C(=O)NCC(N)=O)C(C)C` [deltorphin II] returned an inhibition at 1 µM of 96.6 ± 2.7%.
